Read-outs that look alike come from different tables or passages of the source.

The test system of this assay is P. falciparum K1 (strain resistant to chloroquine and pyrimethamine), erythrocytic stages. As to the kind of experiment: Plasmodium falciparum in vitro assay, [3H] hypoxanthine incorporation. The assay is classed as cell-based. The following applies: [3H] hypoxanthine incorporation, read-out: IC50 (nM) on K1. An outline of the steps: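 Chloroquine/pyrimethamine-resistant K1 erythrocytic cultures (2.5% haematocrit, 0.3% parasitaemia, hypoxanthine-free RPMI with Albumax) exposed to seven doubling dilutions at 37 °C under low O2.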

Where [1] appears, read: Plasmodium falciparum, K1, P. falciparum strain K1.

As usually defined, the IC50 is the concentration that inhibits the measured activity by half. Regarding `CC(=O)Nc1ccc(CN(C)C(=O)[C@H](Cc2ccccc2)N(Cc2ccc(N3CCOCC3)cc2)C(=O)C=Cc2ccc(C(F)(F)F)nc2)cc1` [Example 271], under setting [1], the IC50 turned out to be 100 nM.

As to `CN(Cc1ccc(N2CCCC2=O)cc1)C(=O)[C@H](Cc1ccccc1)N(Cc1ccc(N2CCOCC2)cc1)C(=O)C=Cc1ccc(C(F)(F)F)nc1` [Example 272], the IC50 under setting [1] came out at 80 nM.

As for `CN(Cc1ccc(NC(=O)C2CC2)cc1)C(=O)[C@H](Cc1ccccc1)N(Cc1ccc(N2CCOCC2)cc1)C(=O)C=Cc1ccc(C(F)(F)F)nc1` [Example 273, (S)-Cyclopropanecarboxylic acid (4-{[methyl-(2-{(4-morpholin-4-yl-benzyl)-[3-(6-trifluoromethyl-pyridin-3-yl)-acryloyl]-amino}-3-phenyl-propionyl)-amino]-methyl}-phenyl)-amide], under setting [1], the IC50 was determined as 75 nM.

Take `CN(Cc1ccc(N2CCCCC2=O)cc1)C(=O)[C@H](Cc1ccccc1)N(Cc1ccc(N2CCOCC2)cc1)C(=O)C=Cc1ccc(C(F)(F)F)nc1` [Example 274]: under setting [1], the IC50 was found to be 63 nM.

Turning to `CN(Cc1ccc(NC(=O)c2ccccc2)cc1)C(=O)[C@H](Cc1ccccc1)N(Cc1ccc(N2CCOCC2)cc1)C(=O)C=Cc1ccc(C(F)(F)F)nc1` [Example 275, (S)-N-(4-{[Methyl-(2-{(4-morpholin-4-yl-benzyl)-[3-(6-trifluoromethyl-pyridin-3-yl)-acryloyl]-amino}-3-phenyl-propionyl)-amino]-methyl}-phenyl)-benzamide], the half-maximal inhibitory concentration (IC50) under setting [1] was 59 nM.

Regarding `CC(=O)N(c1ccccc1)c1ccc(CN(C)C(=O)[C@H](Cc2ccccc2)N(Cc2ccc(N3CCOCC3)cc2)C(=O)C=Cc2ccc(C(F)(F)F)nc2)cc1` [Example 276], the IC50 under setting [1] was 65 nM.

As for `COCCNc1ccc(CN(C)C(=O)[C@H](Cc2ccccc2)N(Cc2ccc(N3CCOCC3)cc2)C(=O)C=Cc2ccc(C(F)(F)F)nc2)cc1` [Example 277], the half-maximal inhibitory concentration (IC50) under setting [1] is 47 nM.

“(S)-N-[1-Benzyl-2-oxo-2-(4-phenyl-piperidin-1-yl)-ethyl]-N-(4-pyrimidin-5-yl-benzyl)-3-(6-trifluoromethyl-pyridin-3-yl)-acrylamide [Example 49]”: the IC50 (P. falciparum strain K1) is 43 nM.

The values are drawn from patent publication US20110224210A1, “NOVEL BIS-AMIDES AS ANTI-MALARIAL AGENTS” (priority 2008, published 2011).
